In paper PMC7614683, “A small molecule PI3Kα activator for cardioprotection and neuroregeneration” (Nature, 2023):
Where two headings read alike, the source gives them in different places.

What was measured:
Assay in all cases: SelectScreen Z-LYTE kinase activity assay (SI Table 6)
Format in all cases: biochemical
[1] = molecular target: T1, protein kinases of the Z-LYTE panel (Homo sapiens, UniProt O15530); settings: PDK1, 1000 nM, [ATP] 100 μM
T1 sequence (O15530 1-556): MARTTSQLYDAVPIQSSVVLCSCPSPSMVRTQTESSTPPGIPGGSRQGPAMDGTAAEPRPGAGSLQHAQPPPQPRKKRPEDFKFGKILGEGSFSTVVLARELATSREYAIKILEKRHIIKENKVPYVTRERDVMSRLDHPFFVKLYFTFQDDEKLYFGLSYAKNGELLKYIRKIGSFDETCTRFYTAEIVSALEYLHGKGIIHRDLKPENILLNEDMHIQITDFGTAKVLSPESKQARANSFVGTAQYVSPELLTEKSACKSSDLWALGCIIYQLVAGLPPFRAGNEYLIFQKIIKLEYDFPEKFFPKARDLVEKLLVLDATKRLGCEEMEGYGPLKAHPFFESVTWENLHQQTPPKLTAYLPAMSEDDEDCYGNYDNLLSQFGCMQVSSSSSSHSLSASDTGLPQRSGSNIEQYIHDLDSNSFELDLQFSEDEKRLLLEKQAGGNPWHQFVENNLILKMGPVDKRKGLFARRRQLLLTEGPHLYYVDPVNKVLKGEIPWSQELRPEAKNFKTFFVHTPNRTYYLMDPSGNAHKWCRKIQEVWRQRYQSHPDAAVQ
Procedure, shortened: (§1)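 Compound 1938 counterscreened at 1 μM against 133 protein and 7 lipid kinases in the SelectScreen panel, using Adapta, LanthaScreen binding and Z-LYTE formats as applicable.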

[2] = molecular target: T2, protein kinases of the Z-LYTE panel (Homo sapiens, UniProt P52333)
T2 sequence (P52333 1-1124): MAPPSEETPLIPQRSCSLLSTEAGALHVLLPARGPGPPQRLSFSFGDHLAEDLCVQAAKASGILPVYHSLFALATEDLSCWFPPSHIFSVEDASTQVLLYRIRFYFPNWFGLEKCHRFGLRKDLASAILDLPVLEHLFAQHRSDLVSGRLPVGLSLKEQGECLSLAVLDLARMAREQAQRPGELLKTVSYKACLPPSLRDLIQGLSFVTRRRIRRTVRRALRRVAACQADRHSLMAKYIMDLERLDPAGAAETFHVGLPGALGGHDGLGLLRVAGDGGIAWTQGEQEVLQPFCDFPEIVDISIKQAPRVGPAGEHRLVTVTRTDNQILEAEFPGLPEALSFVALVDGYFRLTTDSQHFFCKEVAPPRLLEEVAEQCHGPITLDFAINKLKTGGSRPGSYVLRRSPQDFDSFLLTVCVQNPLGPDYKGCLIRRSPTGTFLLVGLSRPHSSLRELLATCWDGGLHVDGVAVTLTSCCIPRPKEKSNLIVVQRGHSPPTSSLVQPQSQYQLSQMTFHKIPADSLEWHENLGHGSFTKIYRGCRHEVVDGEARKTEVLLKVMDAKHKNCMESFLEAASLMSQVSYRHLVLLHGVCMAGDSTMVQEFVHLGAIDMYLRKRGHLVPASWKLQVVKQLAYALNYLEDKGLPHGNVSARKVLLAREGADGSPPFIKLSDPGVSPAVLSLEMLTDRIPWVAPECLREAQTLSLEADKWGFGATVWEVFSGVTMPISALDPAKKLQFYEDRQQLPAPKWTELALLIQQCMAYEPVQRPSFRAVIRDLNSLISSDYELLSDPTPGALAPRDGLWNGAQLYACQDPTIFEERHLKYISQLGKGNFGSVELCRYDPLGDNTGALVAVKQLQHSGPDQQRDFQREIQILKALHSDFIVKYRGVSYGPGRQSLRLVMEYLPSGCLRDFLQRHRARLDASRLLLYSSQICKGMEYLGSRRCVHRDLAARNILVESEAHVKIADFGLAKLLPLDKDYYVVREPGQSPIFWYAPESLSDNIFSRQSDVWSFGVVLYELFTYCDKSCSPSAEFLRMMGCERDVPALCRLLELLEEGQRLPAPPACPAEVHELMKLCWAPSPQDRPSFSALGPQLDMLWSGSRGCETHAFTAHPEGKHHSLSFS
Procedure, shortened: as §1

[3] = molecular target: protein kinases of the Z-LYTE panel (Homo sapiens, UniProt P06241)
Sequence of protein kinases of the Z-LYTE panel (Homo sapiens, UniProt P06241) (P06241 whole entry): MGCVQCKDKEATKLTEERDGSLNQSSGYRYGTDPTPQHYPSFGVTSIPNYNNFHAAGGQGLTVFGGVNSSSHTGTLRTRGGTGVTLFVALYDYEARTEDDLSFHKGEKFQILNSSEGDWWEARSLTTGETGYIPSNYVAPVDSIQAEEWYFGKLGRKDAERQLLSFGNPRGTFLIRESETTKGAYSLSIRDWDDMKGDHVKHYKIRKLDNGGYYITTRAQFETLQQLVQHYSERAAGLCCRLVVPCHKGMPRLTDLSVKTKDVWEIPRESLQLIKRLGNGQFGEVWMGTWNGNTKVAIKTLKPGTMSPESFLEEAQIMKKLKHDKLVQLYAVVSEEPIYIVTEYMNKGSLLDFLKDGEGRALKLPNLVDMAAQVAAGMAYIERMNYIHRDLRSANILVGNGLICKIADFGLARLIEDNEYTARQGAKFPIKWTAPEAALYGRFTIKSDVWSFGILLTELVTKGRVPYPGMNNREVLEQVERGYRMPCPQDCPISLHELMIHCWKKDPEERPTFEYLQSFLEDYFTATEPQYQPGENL
Procedure, shortened: as §1

CCN1CCN(c2ccc(Nc3cc(Nc4cccc5c4N(C(C)=O)CC5)ccn3)cc2)CC1 [Compound 1938]
inhibition at 1 µM ([1]; read-out: % Inhibition Point 1): 6%
inhibition at 1 µM ([1]; read-out: % Inhibition Point 2): 7%
inhibition at 1 µM ([1]; read-out: % Inhibition mean): 6%
inhibition at 1 µM ([2]; read-out: % Inhibition Point 1): 3%
inhibition at 1 µM ([2]; read-out: % Inhibition Point 2): 1.12%
inhibition at 1 µM ([2]; read-out: % Inhibition mean): 2%
inhibition at 1 µM ([3]; read-out: % Inhibition Point 1): 6%
inhibition at 1 µM ([3]; read-out: % Inhibition Point 2): 7%
inhibition at 1 µM ([3]; read-out: % Inhibition mean): 6.46%
